# US6384049B1, “Cancer treatment” (The Procter & Gamble Company, priority 2000, dated 2002)
# Test system: HT29, a colon cancer tumor line
# Assay: HT29 colon cancer tumor in nude mouse, average tumor weight
# Type: in vivo
# Description: Imidazo [4,5-b]pyridine-2-carbamic acid, methyl ester was used to treat HT29, a colon cancer tumor line, in nude mouse. The average tumor weight is reported in mg. The control was the vehicle given twice a week. The imidazo [4,5-b]pyridine-2-carbamic acid, methyl ester was also given on this same schedule. Both compounds were administered by oral gavage.
smiles,measurement,setting,value
"COC(=O)Nc1nc2ncccc2[nH]1 [pyridinyl, imidazo [4,5-b]pyridine-2-carbamic acid, methyl ester]",Average Tumor Weight on Day 1,1000 mg/kg p.o. twice a week,75.4 mg
same,Average Tumor Weight on Day 5,1000 mg/kg p.o. twice a week,97.2 mg
same,Average Tumor Weight on Day 8,1000 mg/kg p.o. twice a week,138.2 mg
same,Average Tumor Weight on Day 11,1000 mg/kg p.o. twice a week,172.1 mg
same,Average Tumor Weight on Day 15,1000 mg/kg p.o. twice a week,220.1 mg
same,Average Tumor Weight on Day 18,1000 mg/kg p.o. twice a week,281.6 mg
same,Average Tumor Weight on Day 23,1000 mg/kg p.o. twice a week,340.6 mg
same,Average Tumor Weight on Day 26,1000 mg/kg p.o. twice a week,407.6 mg
same,Average Tumor Weight on Day 30,1000 mg/kg p.o. twice a week,515.6 mg
same,Average Tumor Weight on Day 33,"1000 mg/kg p.o. twice a week, day 33",562 mg
same,Average Tumor Weight on Day 37,"1000 mg/kg p.o. twice a week, day 37",828.3 mg
same,Average Tumor Weight on Day 40,"1000 mg/kg p.o. twice a week, day 40",533.7 mg
same,Average Tumor Weight on Day 44,"1000 mg/kg p.o. twice a week, day 44",714.4 mg
same,Average Tumor Weight on Day 47,"1000 mg/kg p.o. twice a week, day 47",656.8 mg
same,Average Tumor Weight on Day 51,"1000 mg/kg p.o. twice a week, day 51",763.6 mg
same,Average Tumor Weight on Day 54,"1000 mg/kg p.o. twice a week, day 54",793.3 mg
same,Average Tumor Weight on Day 58,"1000 mg/kg p.o. twice a week, day 58",919 mg
same,Average Tumor Weight on Day 1,2500 mg/kg p.o. twice a week,76.2 mg
same,Average Tumor Weight on Day 5,2500 mg/kg p.o. twice a week,62.6 mg
same,Average Tumor Weight on Day 8,2500 mg/kg p.o. twice a week,115.2 mg
same,Average Tumor Weight on Day 11,2500 mg/kg p.o. twice a week,101.1 mg
same,Average Tumor Weight on Day 15,2500 mg/kg p.o. twice a week,196 mg
same,Average Tumor Weight on Day 18,2500 mg/kg p.o. twice a week,126 mg
same,Average Tumor Weight on Day 23,2500 mg/kg p.o. twice a week,256 mg
same,Average Tumor Weight on Day 26,2500 mg/kg p.o. twice a week,171.5 mg
same,Average Tumor Weight on Day 1,1500 m/kg p.o. twice a week,76.6 mg
same,Average Tumor Weight on Day 5,1500 m/kg p.o. twice a week,76.1 mg
same,Average Tumor Weight on Day 8,1500 m/kg p.o. twice a week,94.4 mg
same,Average Tumor Weight on Day 11,1500 m/kg p.o. twice a week,130 mg
same,Average Tumor Weight on Day 15,1500 m/kg p.o. twice a week,166.3 mg
same,Average Tumor Weight on Day 18,1500 m/kg p.o. twice a week,189.3 mg
same,Average Tumor Weight on Day 23,1500 m/kg p.o. twice a week,242.3 mg
same,Average Tumor Weight on Day 26,1500 m/kg p.o. twice a week,264 mg
same,Average Tumor Weight on Day 30,1500 m/kg p.o. twice a week,405 mg
